# Reference: patent US20250270209A1 (INTERLINE THERAPEUTICS, INC., priority 2022, published 2025)
# How the values were obtained:
# LRRK2 wild type enzyme = LRRK2 wild type enzyme (Homo sapiens, UniProt Q5S007); assay: Biochemical Assay: LRRK2 TR-FRET (LanthaScreen) kinase assay with LRRKtide substrate; conditions: LRRK2 Inhibition, Table 8
# How it was run: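 Human wild-type LRRK2 (3 nM) preincubated 15 min with compound (11-point, 3-fold, top 10 μM), then reacted 120 min at 23 °C with 400 nM LRRKtide and 25 μM ATP, pH 8.0. Stopped with EDTA; Tb-anti-pLRRKtide TR-FRET read after 30 min.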
# [1] = biological target: T1, wild type LRRK2 overexpressed in recombinant HEK-293T cells (Homo sapiens, UniProt Q5S007); assay: pS935 LRRK2 Cell Assay (HTRF, phospho-LRRK2 Ser935); type: cell-based; conditions: LRRK2 Inhibition, Table 8, 2 hours compound incubation
# T1 construct: host or cells: HEK293T (transient transfection with pCMV-LRRK2 WT plasmid)
# How it was run: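 HEK-293T cells transiently transfected with wild-type LRRK2 for 24 h, plated overnight, then treated 2 h at 37° C with compound (top 10 μM, 3-fold, 9 doses, duplicates, 0.2% DMSO). Lysates probed overnight at 23° C by sandwich HTRF for pSer935; 665/615 nm ratio read.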
# T1 sequence (Q5S007 whole entry): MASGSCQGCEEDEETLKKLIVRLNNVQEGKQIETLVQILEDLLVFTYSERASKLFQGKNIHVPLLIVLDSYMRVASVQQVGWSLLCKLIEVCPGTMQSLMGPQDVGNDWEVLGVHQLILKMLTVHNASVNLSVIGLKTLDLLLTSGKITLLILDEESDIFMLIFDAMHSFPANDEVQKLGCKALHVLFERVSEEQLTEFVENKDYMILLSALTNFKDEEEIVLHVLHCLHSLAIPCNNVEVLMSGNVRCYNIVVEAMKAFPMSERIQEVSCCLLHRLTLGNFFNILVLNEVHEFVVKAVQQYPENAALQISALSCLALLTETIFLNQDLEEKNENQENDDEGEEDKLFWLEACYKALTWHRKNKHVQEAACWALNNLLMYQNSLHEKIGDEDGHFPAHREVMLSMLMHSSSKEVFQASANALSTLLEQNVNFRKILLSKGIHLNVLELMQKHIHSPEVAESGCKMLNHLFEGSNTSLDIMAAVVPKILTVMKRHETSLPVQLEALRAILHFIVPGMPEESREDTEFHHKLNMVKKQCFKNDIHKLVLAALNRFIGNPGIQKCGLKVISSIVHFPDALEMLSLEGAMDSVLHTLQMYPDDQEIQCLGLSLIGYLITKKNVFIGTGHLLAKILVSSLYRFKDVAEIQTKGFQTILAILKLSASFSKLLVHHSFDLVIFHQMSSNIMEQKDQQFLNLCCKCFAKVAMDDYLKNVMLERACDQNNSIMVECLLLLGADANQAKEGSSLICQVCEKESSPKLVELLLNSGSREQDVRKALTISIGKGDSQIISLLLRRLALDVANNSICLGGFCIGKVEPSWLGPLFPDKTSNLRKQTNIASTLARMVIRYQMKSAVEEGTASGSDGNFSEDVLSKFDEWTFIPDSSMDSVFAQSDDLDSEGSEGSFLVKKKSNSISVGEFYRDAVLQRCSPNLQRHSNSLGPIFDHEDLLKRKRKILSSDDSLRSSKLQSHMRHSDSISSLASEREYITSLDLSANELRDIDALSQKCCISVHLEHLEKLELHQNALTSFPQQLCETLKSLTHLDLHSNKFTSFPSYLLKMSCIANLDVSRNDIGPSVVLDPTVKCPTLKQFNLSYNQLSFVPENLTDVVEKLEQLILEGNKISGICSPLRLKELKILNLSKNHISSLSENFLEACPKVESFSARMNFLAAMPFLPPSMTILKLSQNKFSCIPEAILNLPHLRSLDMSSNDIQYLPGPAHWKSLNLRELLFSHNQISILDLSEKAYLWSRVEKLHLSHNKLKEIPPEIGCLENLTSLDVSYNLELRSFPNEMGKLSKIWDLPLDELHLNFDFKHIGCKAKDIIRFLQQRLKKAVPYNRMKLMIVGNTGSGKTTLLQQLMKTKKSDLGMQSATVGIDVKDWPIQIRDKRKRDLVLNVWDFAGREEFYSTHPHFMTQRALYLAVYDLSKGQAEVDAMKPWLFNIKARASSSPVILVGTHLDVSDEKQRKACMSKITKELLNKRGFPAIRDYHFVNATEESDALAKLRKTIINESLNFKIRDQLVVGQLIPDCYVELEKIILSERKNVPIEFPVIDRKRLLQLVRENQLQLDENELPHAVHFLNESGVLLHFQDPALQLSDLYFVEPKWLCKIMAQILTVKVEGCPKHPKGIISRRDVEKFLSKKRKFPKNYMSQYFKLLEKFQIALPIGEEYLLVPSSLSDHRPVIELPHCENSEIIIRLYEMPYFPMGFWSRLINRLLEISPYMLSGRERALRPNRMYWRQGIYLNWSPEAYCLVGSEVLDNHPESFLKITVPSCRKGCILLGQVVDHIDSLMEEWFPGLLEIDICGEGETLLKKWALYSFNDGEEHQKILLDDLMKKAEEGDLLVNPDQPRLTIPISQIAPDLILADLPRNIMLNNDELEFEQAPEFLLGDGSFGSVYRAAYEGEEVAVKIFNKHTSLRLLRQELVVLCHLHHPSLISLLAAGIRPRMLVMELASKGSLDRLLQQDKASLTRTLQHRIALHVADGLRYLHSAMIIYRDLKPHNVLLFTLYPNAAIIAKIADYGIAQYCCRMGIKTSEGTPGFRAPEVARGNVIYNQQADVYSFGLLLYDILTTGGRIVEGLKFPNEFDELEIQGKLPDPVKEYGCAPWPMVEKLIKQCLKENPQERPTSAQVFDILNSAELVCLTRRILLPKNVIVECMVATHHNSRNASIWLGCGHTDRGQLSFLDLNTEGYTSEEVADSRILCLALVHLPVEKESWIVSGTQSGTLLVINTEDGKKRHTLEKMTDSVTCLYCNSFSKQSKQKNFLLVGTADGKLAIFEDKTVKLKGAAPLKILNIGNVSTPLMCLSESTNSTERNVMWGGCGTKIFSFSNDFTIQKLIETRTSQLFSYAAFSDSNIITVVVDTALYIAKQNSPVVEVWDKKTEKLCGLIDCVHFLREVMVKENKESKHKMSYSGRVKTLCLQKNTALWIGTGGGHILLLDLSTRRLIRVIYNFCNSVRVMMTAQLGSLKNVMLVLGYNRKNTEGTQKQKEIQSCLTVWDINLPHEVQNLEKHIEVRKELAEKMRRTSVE
# Sequence of LRRK2 wild type enzyme (Q5S007 whole entry): as above
Structure (SMILES),IC50 (LRRK2 wild type enzyme) [nM],IC50 [1] [nM]
"C[C@@H]1C[C@H](n2c(CC(=O)Nc3ccc(=O)n(C)c3)nc3cnc4ccc(C#N)cc4c32)CCO1 [Compound 281, N-(1-methyl-6-oxo-1,6-dihydro-3-pyridyl){3-[(2R,4R)-2-methyltetrahydro-2H-pyran-4-yl]-12-cyano-3,5,8-triazatricyclo[7.4.0.0^2,6]trideca-1,4,6,8,10,12-hexaen-4-yl}acetamide]",0.394,336
"C[C@@H]1C[C@H](n2c(CNc3ncco3)nc3cnc4ccc(C#N)cc4c32)CCO1 [Compound 11, 1-[(2R,4R)-2-methyloxan-4-yl]-2-{[(1,3-oxazol-2-yl)amino]methyl}-1H-imidazo[4,5-c]quinoline-8-carbonitrile]",4.23,609
"C[C@@H]1C[C@H](n2c([C@H]3CCN(C(=O)OC(C)(C)C)C3)nc3cnc4ccc(C#N)cc4c32)CCO1 [Compound 26, tert-butyl (3S)-3-{8-cyano-1-[(2R,4R)-2-methyloxan-4-yl]-1H-imidazo[4,5-c]quinolin-2-yl}pyrrolidine-1-carboxylate]",5.26,452
"C[C@@H]1C[C@H](n2c(C3CC(=O)N([C@H]4CCOC4)C3)nc3cnc4ccc(C#N)cc4c32)CCO1 (stereo partly drawn) [Compound 45, 1-[(2R,4R)-2-methyloxan-4-yl]-2-{5-oxo-1-[(3S)-oxolan-3-yl]pyrrolidin-3-yl}-1H-imidazo[4,5-c]quinoline-8-carbonitrile]",3.24,550
"C[C@@H]1C[C@H](n2c(CC(=O)N[C@@H]3C[C@H]3F)nc3cnc4ccc(C#N)cc4c32)CCO1 [Compound 246, N-[(1R,2R)-2-fluorocyclopropyl]{3-[(2R,4R)-2-methyltetrahydro-2H-pyran-4-yl]-12-cyano-3,5,8-triazatricyclo[7.4.0.0^2,6]trideca-1(13),2(6),4,7,9,11-hexaen-4-yl}acetamide]",1.1,52.2
"C[C@@H]1C[C@H](n2c(CC(=O)Nc3cccnc3C#N)nc3cnc4ccc(C#N)cc4c32)CCO1 [Compound 272, N-(2-cyano-3-pyridyl){3-[(2R,4R)-2-methyltetrahydro-2H-pyran-4-yl]-12-cyano-3,5,8-triazatricyclo[7.4.0.0^2,6]trideca-1,4,6,8,10,12-hexaen-4-yl}acetamide]",0.549,12.5
"C[C@@H]1C[C@H](n2c(CC(=O)N[C@@H]3CCCc4cccnc43)nc3cnc4ccc(C#N)cc4c32)CCO1 [Compound 357, N-[(R)-5,6,7,8-tetrahydro-8-quinolyl]{3-[(2R,4R)-2-methyltetrahydro-2H-pyran-4-yl]-12-cyano-3,5,8-triazatricyclo[7.4.0.0^2,6]trideca-1(9),2(6),4,7,10,12-hexaen-4-yl}acetamide]",0.628,10.7
"C[C@@H]1C[C@H](n2c(CC(=O)Nc3ccn(C)c(=O)c3)nc3cnc4ccc(Cl)cc4c32)CCO1 [Compound 212, N-(1-methyl-2-oxo-1,2-dihydro-4-pyridyl){3-[(2R,4R)-2-methyltetrahydro-2H-pyran-4-yl]-12-chloro-3,5,8-triazatricyclo[7.4.0.0^2,6]trideca-1,4,6,8,10,12-hexaen-4-yl}acetamide]",0.331,11.5
"C[C@@H]1C[C@H](n2c(C3CCN(S(=O)(=O)C4CC4)CC3)nc3cnc4ccc(C#N)cc4c32)CCO1 [Compound 120, 2-[1-(cyclopropanesulfonyl)piperidin-4-yl]-1-[(2R,4R)-2-methyloxan-4-yl]-1H-imidazo[4,5-c]quinoline-8-carbonitrile]",1.7,268
"CC(=O)N1CC[C@@H](c2nc3cnc4ccc(C#N)cc4c3n2[C@@H]2CCO[C@H](C)C2)C1 [Compound 42, 2-[(3R)-1-acetylpyrrolidin-3-yl]-1-[(2R,4R)-2-methyloxan-4-yl]-1H-imidazo[4,5-c]quinoline-8-carbonitrile]",13,2070
"C[C@@H]1C[C@H](n2c(CC(=O)Nc3ccnn3C)nc3cnc4ccc(C#N)cc4c32)CCO1 [Compound 169, 2-{8-cyano-1-[(2R,4R)-2-methyloxan-4-yl]-1H-imidazo[4,5-c]quinolin-2-yl}-N-(1-methyl-1H-pyrazol-5-yl)acetamide]",0.319,14.5
"C[C@@H]1C[C@H](n2c(CC(=O)N[C@@H](C)c3ccccn3)nc3cnc4ccc(C#N)cc4c32)CCO1 [Compound 189, 2-{8-cyano-1-[(2R,4R)-2-methyloxan-4-yl]-1H-imidazo[4,5-c]quinolin-2-yl}-N-[(1S)-1-(pyridin-2-yl)ethyl]acetamide]",0.332,1.64
"C[C@@H]1C[C@H](n2c([C@H]3CCCN(C(=O)C4CC4)C3)nc3cnc4ccc(C#N)cc4c32)CCO1 [Compound 29, 2-[(3S)-1-cyclopropanecarbonylpiperidin-3-yl]-1-[(2R,4R)-2-methyloxan-4-yl]-1H-imidazo[4,5-c]quinoline-8-carbonitrile]",135,4680
"C[C@@H]1C[C@H](n2c(CC(=O)N(C)C)nc3cnc4ccc(C#N)cc4c32)CCO1 [Compound 9, 2-{8-cyano-1-[(2R,4R)-2-methyloxan-4-yl]-1H-imidazo[4,5-c]quinolin-2-yl}-N,N-dimethylacetamide]",6.28,605
"CCNC(=O)Cc1nc2cnc3ccc(C#N)cc3c2n1[C@@H]1CCO[C@H](C)C1 [Compound 6, 2-{8-cyano-1-[(2R,4R)-2-methyloxan-4-yl]-1H-imidazo[4,5-c]quinolin-2-yl}-N-ethylacetamide]",0.58,48.7
"C[C@@H]1C[C@H](n2c(CNC(=O)c3cnn(C)c3)nc3cnc4ccc(C#N)cc4c32)CCO1 [Compound 20, N-({8-cyano-1-[(2R,4R)-2-methyloxan-4-yl]-1H-imidazo[4,5-c]quinolin-2-yl}methyl)-1-methyl-1H-pyrazole-4-carboxamide]",1.83,224
"C[C@@H]1C[C@H](n2c(CC(=O)Nc3cnoc3)nc3cnc4ccc(C#N)cc4c32)CCO1 [Compound 180, 2-{8-cyano-1-[(2R,4R)-2-methyloxan-4-yl]-1H-imidazo[4,5-c]quinolin-2-yl}-N-(1,2-oxazol-4-yl)acetamide]",0.432,21.6
"C[C@@H]1C[C@H](n2c(C3CC(=O)N(c4cnn(C)c4)C3)nc3cnc4ccc(C#N)cc4c32)CCO1 (mixture of isomers) [Compound 59, 2-[(3RS)-1-(1-methyl-1H-pyrazol-4-yl)-5-oxopyrrolidin-3-yl]-1-[(2R,4R)-2-methyloxan-4-yl]-1H-imidazo[4,5-c]quinoline-8-carbonitrile]",1.06,118
"C[C@@H]1C[C@H](n2c(CC(=O)NC3CC=CC3)nc3cnc4ccc(C#N)cc4c32)CCO1 [Compound 302, N-(3-cyclopenten-1-yl){3-[(2R,4R)-2-methyltetrahydro-2H-pyran-4-yl]-12-cyano-3,5,8-triazatricyclo[7.4.0.0^2,6]trideca-1,4,6,8,10,12-hexaen-4-yl}acetamide]",0.483,10
"C[C@@H]1C[C@H](n2c([C@@H]3CCN(S(=O)(=O)C4CC4)C3)nc3cnc4ccc(C#N)cc4c32)CCO1 [Compound 24, 2-[(3R)-1-(cyclopropanesulfonyl)pyrrolidin-3-yl]-1-[(2R,4R)-2-methyloxan-4-yl]-1H-imidazo[4,5-c]quinoline-8-carbonitrile]",5.4,677
"C[C@@H]1C[C@H](n2c(C3CC(=O)N(C4COC4)C3)nc3cnc4ccc(C#N)cc4c32)CCO1 (stereo partly drawn) [Compound 46, 1-[(2R,4R)-2-methyloxan-4-yl]-2-[1-(oxetan-3-yl)-5-oxopyrrolidin-3-yl]-1H-imidazo[4,5-c]quinoline-8-carbonitrile]",5.91,1330
"C[C@@H]1C[C@H](n2c(C3CCN(C(=O)c4cnn(C)c4)CC3)nc3cnc4ccc(C#N)cc4c32)CCO1 [Compound 118, 2-[1-(1-methyl-1H-pyrazole-4-carbonyl)piperidin-4-yl]-1-[(2R,4R)-2-methyloxan-4-yl]-1H-imidazo[4,5-c]quinoline-8-carbonitrile]",0.855,330
"C[C@@H]1C[C@H](n2c(CC(=O)NC3(C)CCOC3)nc3cnc4ccc(Cl)cc4c32)CCO1 (stereo partly drawn) [Compound 333, N-(3-methyltetrahydro-3-furyl){3-[(2R,4R)-2-methyltetrahydro-2H-pyran-4-yl]-12-chloro-3,5,8-triazatricyclo[7.4.0.0^2,6]trideca-1(9),2(6),4,7,10,12-hexaen-4-yl}acetamide]",1.27,30.7
"C[C@@H]1C[C@H](n2c(CC(=O)N[C@H]3C[C@@H]3c3cccnc3)nc3cnc4ccc(C#N)cc4c32)CCO1 [Compound 347, N-[(1S,2R)-2-(3-pyridyl)cyclopropyl]{3-[(2R,4R)-2-methyltetrahydro-2H-pyran-4-yl]-12-cyano-3,5,8-triazatricyclo[7.4.0.0^2,6]trideca-1(9),2(6),4,7,10,12-hexaen-4-yl}acetamide]",1.28,144
"C[C@@H]1C[C@H](n2c(CC(=O)Nc3cc(C4CC4)on3)nc3cnc4ccc(C#N)cc4c32)CCO1 [Compound 359, N-(5-cyclopropyl-3-isoxazolyl){3-[(2R,4R)-2-methyltetrahydro-2H-pyran-4-yl]-12-cyano-3,5,8-triazatricyclo[7.4.0.0^2,6]trideca-1(9),2(6),4,7,10,12-hexaen-4-yl}acetamide]",0.525,4.76
